System: MV-4-11 cells
Assay: Gene expression microarray analysis (Affymetrix PrimeView) and GSEA
Assay type: cell-based, human
Design: RFU PODN (11730768_x_at) / Fold change /veh PODN (11730768_x_at) / RFU LINC00158 (11744669_a_at) / Fold change /veh LINC00158 (11744669_a_at) / RFU DUSP10 (11751237_a_at) / Fold change /veh DUSP10 (11751237_a_at) / RFU ID3 (11757404_x_at) / Fold change /veh ID3 (11757404_x_at) / RFU PLEKHG5 (11737974_s_at) / Fold change /veh PLEKHG5 (11737974_s_at) / RFU LRRC4B (11730491_at) / Fold change /veh LRRC4B (11730491_at) / RFU GIMAP4 (11747438_a_at) / Fold change /veh GIMAP4 (11747438_a_at) / RFU KRT8 (11758183_x_at) / Fold change /veh KRT8 (11758183_x_at) / RFU CNN1 (11734310_a_at) / Fold change /veh CNN1 (11734310_a_at) / RFU VPS37D (11726825_at) / Fold change /veh VPS37D (11726825_at) / RFU C10orf10 (11716522_x_at) / Fold change /veh C10orf10 (11716522_x_at) / RFU KIR2DL2 /// KIR2DL4 /// KIR2DL5A /// KIR2DL5B /// KIR2DS1 /// KIR2DS2 /// KIR2DS3 /// KIR2DS4 /// KIR3DL3 /// KIR3DL3 /// KIR3DS1 (11738374_at) / Fold change /veh KIR2DL2 /// KIR2DL4 /// KIR2DL5A /// KIR2DL5B /// KIR2DS1 /// KIR2DS2 /// KIR2DS3 /// KIR2DS4 /// KIR3DL3 /// KIR3DL3 /// KIR3DS1 (11738374_at) / RFU C1QL1 (11718748_at) / Fold change /veh C1QL1 (11718748_at) / RFU TMPRSS4 (11747572_a_at) / Fold change /veh TMPRSS4 (11747572_a_at) / RFU HAMP (11756126_x_at) / Fold change /veh HAMP (11756126_x_at) / RFU RNFT2 (11725882_a_at) / Fold change /veh RNFT2 (11725882_a_at) / RFU NR4A2 (11747474_a_at) / Fold change /veh NR4A2 (11747474_a_at) / RFU ABCC12 (11746883_a_at) / Fold change /veh ABCC12 (11746883_a_at) / RFU TMEM136 (11760407_x_at) / Fold change /veh TMEM136 (11760407_x_at) / RFU CLDN22 /// WWC2 (11732394_at) / Fold change /veh CLDN22 /// WWC2 (11732394_at) / RFU HLA-DPB1 (11760878_x_at) / Fold change /veh HLA-DPB1 (11760878_x_at) / RFU SPINT1 (11716480_a_at) / Fold change /veh SPINT1 (11716480_a_at) / RFU GAP43 (11754022_s_at) / Fold change /veh GAP43 (11754022_s_at) / RFU A4GNT (11735810_at) / Fold change /veh A4GNT (11735810_at) / RFU PRB3 (11715151_x_at) / Fold change /veh PRB3 (11715151_x_at) / RFU TUBB4B (11761932_at) / Fold change /veh TUBB4B (11761932_at) / RFU CAPN14 (11732068_a_at) / Fold change /veh CAPN14 (11732068_a_at) / RFU TMCC2 (11721928_a_at) / Fold change /veh TMCC2 (11721928_a_at) / RFU IRGQ (11745062_a_at) / Fold change /veh IRGQ (11745062_a_at) / RFU FAM174B (11720279_a_at) / Fold change /veh FAM174B (11720279_a_at) / RFU TMPRSS4 (11748680_a_at) / Fold change /veh TMPRSS4 (11748680_a_at) / RFU FAM212B (11763350_a_at) / Fold change /veh FAM212B (11763350_a_at) / RFU PLEKHG5 (11743358_a_at) / Fold change /veh PLEKHG5 (11743358_a_at) / RFU ZSCAN30 (11745921_a_at) / Fold change /veh ZSCAN30 (11745921_a_at) / RFU CMKLR1 (11741424_a_at) / Fold change /veh CMKLR1 (11741424_a_at) / RFU LOC101060620 /// MAPK8IP1 (11723275_at) / Fold change /veh LOC101060620 /// MAPK8IP1 (11723275_at) / RFU SPTSSB (11747773_x_at) / Fold change /veh SPTSSB (11747773_x_at) / RFU PRSS12 (11739890_at) / Fold change /veh PRSS12 (11739890_at) / RFU BIN1 (11741810_x_at) / Fold change /veh BIN1 (11741810_x_at) / RFU WNT11 (11732464_a_at) / Fold change /veh WNT11 (11732464_a_at) / RFU C10orf10 (11716521_a_at) / Fold change /veh C10orf10 (11716521_a_at) / RFU C5orf56 (11738089_at) / Fold change /veh C5orf56 (11738089_at) / RFU CYB561 (11721691_x_at) / Fold change /veh CYB561 (11721691_x_at) / RFU ANKRD19P (11752326_a_at) / Fold change /veh ANKRD19P (11752326_a_at) / RFU OR2T12 /// OR2T33 /// OR2T8 (11738714_s_at) / Fold change /veh OR2T12 /// OR2T33 /// OR2T8 (11738714_s_at) / RFU VCAN (11748164_a_at) / Fold change /veh VCAN (11748164_a_at) / RFU JSRP1 (11732532_at) / Fold change /veh JSRP1 (11732532_at) / RFU KRTAP10-11 (11738290_x_at) / Fold change /veh KRTAP10-11 (11738290_x_at) / RFU MYO3A (11730013_a_at) / Fold change /veh MYO3A (11730013_a_at) / RFU EBF3 (11725865_a_at) / Fold change /veh EBF3 (11725865_a_at) / RFU CAMK2N1 (11719241_x_at) / Fold change /veh CAMK2N1 (11719241_x_at) / RFU C5orf56 (11738088_a_at) / Fold change /veh C5orf56 (11738088_a_at) / RFU OLFML3 (11715873_a_at) / Fold change /veh OLFML3 (11715873_a_at) / RFU LOC100653217 /// NTM (11731650_a_at) / Fold change /veh LOC100653217 /// NTM (11731650_a_at) / RFU MAPK11 (11762145_a_at) / Fold change /veh MAPK11 (11762145_a_at) / RFU FIZ1 (11724087_x_at) / Fold change /veh FIZ1 (11724087_x_at) / RFU OASL (11726364_x_at) / Fold change /veh OASL (11726364_x_at) / RFU SOX15 (11748057_x_at) / Fold change /veh SOX15 (11748057_x_at) / RFU CD79A (11719716_a_at) / Fold change /veh CD79A (11719716_a_at) / RFU HIST1H1D (11736915_at) / Fold change /veh HIST1H1D (11736915_at) / RFU CASKIN2 (11723855_a_at) / Fold change /veh CASKIN2 (11723855_a_at) / RFU LOC730098 (11760151_x_at) / Fold change /veh LOC730098 (11760151_x_at) / RFU OR4N2 (11742367_at) / Fold change /veh OR4N2 (11742367_at) / RFU PRRT2 (11749266_a_at) / Fold change /veh PRRT2 (11749266_a_at) / RFU SNX32 (11753110_a_at) / Fold change /veh SNX32 (11753110_a_at) / RFU CDHR5 (11726645_a_at) / Fold change /veh CDHR5 (11726645_a_at) / RFU RCAN1 (11760418_a_at) / Fold change /veh RCAN1 (11760418_a_at) / RFU FAM167A (11723789_a_at) / Fold change /veh FAM167A (11723789_a_at) / RFU FAM26E (11764081_at) / Fold change /veh FAM26E (11764081_at) / RFU ISYNA1 (11749810_s_at) / Fold change /veh ISYNA1 (11749810_s_at) / RFU ACY1 (11761880_at) / Fold change /veh ACY1 (11761880_at) / RFU 11764098_at / Fold change /veh 11764098_at / RFU SAMD14 (11745864_x_at) / Fold change /veh SAMD14 (11745864_x_at) / RFU NPB (11741838_a_at) / Fold change /veh NPB (11741838_a_at) / RFU TMPRSS6 (11731388_a_at) / Fold change /veh TMPRSS6 (11731388_a_at) / RFU KRTAP10-2 (11738614_at) / Fold change /veh KRTAP10-2 (11738614_at) / RFU ARHGAP8 /// PRR5-ARHGAP8 (11727945_x_at) / Fold change /veh ARHGAP8 /// PRR5-ARHGAP8 (11727945_x_at) / RFU KRTAP5-7 /// NADSYN1 (11734609_at) / Fold change /veh KRTAP5-7 /// NADSYN1 (11734609_at) / RFU RASL12 (11751679_a_at) / Fold change /veh RASL12 (11751679_a_at) / RFU CDKN2B (11736163_a_at) / Fold change /veh CDKN2B (11736163_a_at) / RFU PRF1 (11729649_at) / Fold change /veh PRF1 (11729649_at) / RFU, ZNF638 /// ZNF638-IT1 / Fold change vs veh, ZNF638 /// ZNF638-IT1 / RFU, PANK3 / Fold change vs veh, PANK3 / RFU, SH3YL1 / Fold change vs veh, SH3YL1 / RFU, ZEB2 / Fold change vs veh, ZEB2 / RFU, NRIP1 / Fold change vs veh, NRIP1 / RFU, PTTG1IP / Fold change vs veh, PTTG1IP / RFU, CAPN2 / Fold change vs veh, CAPN2 / RFU, MED14 / Fold change vs veh, MED14 / RFU, SNORA58 / Fold change vs veh, SNORA58 / RFU, C1orf63 / Fold change vs veh, C1orf63 / RFU, LRRFIP1 / Fold change vs veh, LRRFIP1 / RFU, NDUFAF7 / Fold change vs veh, NDUFAF7 / RFU, SLC12A2 / Fold change vs veh, SLC12A2 / RFU, IBTK / Fold change vs veh, IBTK / RFU, ESF1 / Fold change vs veh, ESF1 / Fold change vs veh, TMEM50B / RFU, TAOK1 / Fold change vs veh, TAOK1 / RFU, ACBD3 / Fold change vs veh, ACBD3 / RFU, TMA16 / Fold change vs veh, TMA16 / RFU, RWDD3 / Fold change vs veh, RWDD3 / RFU, BCAT1 / Fold change vs veh, BCAT1 / RFU, EDEM3 / Fold change vs veh, EDEM3 / RFU, TMEM33 / Fold change vs veh, TMEM33 / RFU, WDR75 / Fold change vs veh, WDR75 / RFU, AHCTF1 / Fold change vs veh, AHCTF1 / RFU, TFRC / Fold change vs veh, TFRC / RFU, ZDHHC17 / Fold change vs veh, ZDHHC17 / RFU, NOM1 / Fold change vs veh, NOM1 / RFU, ARL8B / Fold change vs veh, ARL8B / RFU, ZBTB11 / Fold change vs veh, ZBTB11 / RFU, TAMM41 / Fold change vs veh, TAMM41 / RFU, KIAA1704 /// LOC100996395 / Fold change vs veh, KIAA1704 /// LOC100996395 / RFU, ING1 / Fold change vs veh, ING1 / RFU, TRMT61B / Fold change vs veh, TRMT61B / RFU, FUBP3 / Fold change vs veh, FUBP3 / RFU, TP53 / Fold change vs veh, TP53 / RFU, TNKS2 / Fold change vs veh, TNKS2 / RFU, ZFP14 / Fold change vs veh, ZFP14 / RFU, ACTR2 / Fold change vs veh, ACTR2 / RFU, PPP3R1 / Fold change vs veh, PPP3R1 / RFU, PIK3R1 / Fold change vs veh, PIK3R1 / RFU, HNRNPA1 / Fold change vs veh, HNRNPA1 / RFU, RNF170 / Fold change vs veh, RNF170 / RFU, ZNF28 / Fold change vs veh, ZNF28 / RFU, RNGTT / Fold change vs veh, RNGTT / RFU, OGT / Fold change vs veh, OGT / RFU, BRD1 / Fold change vs veh, BRD1 / RFU, MARS / Fold change vs veh, MARS / RFU, ZNF655 / Fold change vs veh, ZNF655 / RFU, FAHD1 / Fold change vs veh, FAHD1 / RFU, BDP1 / Fold change vs veh, BDP1 / RFU, LRRCC1 / Fold change vs veh, LRRCC1 / RFU, ARID1A / Fold change vs veh, ARID1A / RFU, ZNF146 / Fold change vs veh, ZNF146 / RFU, ZNF330 / Fold change vs veh, ZNF330 / RFU, GPN3 / Fold change vs veh, GPN3 / RFU, C9orf123 / Fold change vs veh, C9orf123 / RFU, N4BP2L2 / Fold change vs veh, N4BP2L2 / RFU, ARFIP1 / Fold change vs veh, ARFIP1 / RFU, FAM179B / Fold change vs veh, FAM179B / RFU, BCL10 / Fold change vs veh, BCL10 / RFU, UHRF1BP1L / Fold change vs veh, UHRF1BP1L / RFU, BET1 / Fold change vs veh, BET1 / RFU, CNOT2 / Fold change vs veh, CNOT2 / RFU, ZNF268 / Fold change vs veh, ZNF268 / Fold change vs veh, ZNF507 / RFU, DGCR2 / Fold change vs veh, DGCR2 / RFU, WDSUB1 / Fold change vs veh, WDSUB1 / Fold change vs veh, HSP90B1 /// MIR3652 / RFU, ADSS / Fold change vs veh, ADSS / RFU, GK / Fold change vs veh, GK / RFU, ZNF148 / Fold change vs veh, ZNF148 / RFU, TAF9 / Fold change vs veh, TAF9 / RFU, SLC1A5 / Fold change vs veh, SLC1A5 / RFU, SLMO2 / Fold change vs veh, SLMO2 / RFU, ABCC4 / Fold change vs veh, ABCC4 / RFU, LOC101060439 /// RAP1B / Fold change vs veh, LOC101060439 /// RAP1B / RFU, RFX7 / Fold change vs veh, RFX7 / RFU, GTPBP10 / Fold change vs veh, GTPBP10 / RFU, CNEP1R1 / Fold change vs veh, CNEP1R1 / RFU, BIVM-ERCC5 /// ERCC5 / Fold change vs veh, BIVM-ERCC5 /// ERCC5 / RFU, ILF3 / Fold change vs veh, ILF3 / RFU 11762660_at / Fold change /veh 11762660_at / RFU VCAN (11757783_s_at) / Fold change /veh VCAN (11757783_s_at) / RFU DDX43 (11728927_at) / Fold change /veh DDX43 (11728927_at) / RFU KRT8 (11758188_x_at) / Fold change /veh KRT8 (11758188_x_at) / RFU NKD1 (11759106_at) / Fold change /veh NKD1 (11759106_at) / RFU SRD5A1 (11742802_a_at) / Fold change /veh SRD5A1 (11742802_a_at) / RFU TPSAB1 /// TPSB2 (11721975_s_at) / Fold change /veh TPSAB1 /// TPSB2 (11721975_s_at) / RFU GSTM3 (11746129_a_at) / Fold change /veh GSTM3 (11746129_a_at) / RFU IL23R (11737362_x_at) / Fold change /veh IL23R (11737362_x_at) / RFU TMEM51 (11727254_a_at) / Fold change /veh TMEM51 (11727254_a_at) / RFU PIWIL2 (11732686_x_at) / Fold change /veh PIWIL2 (11732686_x_at) / RFU ORM1 (11744905_x_at) / Fold change /veh ORM1 (11744905_x_at) / RFU CCDC152 (11743942_at) / Fold change /veh CCDC152 (11743942_at) / RFU ECM1 (11717891_a_at) / Fold change /veh ECM1 (11717891_a_at) / RFU IL23R (11748794_a_at) / Fold change /veh IL23R (11748794_a_at) / RFU TNFAIP8L3 (11732012_x_at) / Fold change /veh TNFAIP8L3 (11732012_x_at) / RFU MBOAT4 (11741988_at) / Fold change /veh MBOAT4 (11741988_at) / RFU 11764193_at / Fold change /veh 11764193_at / RFU TMEM53 (11763286_at) / Fold change /veh TMEM53 (11763286_at) / RFU MAGEB2 (11727129_at) / Fold change /veh MAGEB2 (11727129_at) / RFU TMEM200A (11744735_a_at) / Fold change /veh TMEM200A (11744735_a_at) / RFU CCDC152 (11751479_a_at) / Fold change /veh CCDC152 (11751479_a_at) / RFU FAM211A (11726209_a_at) / Fold change /veh FAM211A (11726209_a_at) / RFU RGS16 (11746705_a_at) / Fold change /veh RGS16 (11746705_a_at) / RFU VCAN (11755009_s_at) / Fold change /veh VCAN (11755009_s_at) / RFU RHOB (11743442_s_at) / Fold change /veh RHOB (11743442_s_at) / RFU RGS16 (11720943_a_at) / Fold change /veh RGS16 (11720943_a_at) / RFU RGS16 (11720944_at) / Fold change /veh RGS16 (11720944_at) / RFU, VPS4B / Fold change vs veh, VPS4B / RFU, CREB1 / Fold change vs veh, CREB1 / RFU, DNAJC13 / Fold change vs veh, DNAJC13 / RFU, GNAQ / Fold change vs veh, GNAQ / RFU, CDK5R1 / Fold change vs veh, CDK5R1 / RFU, ZRANB3 / Fold change vs veh, ZRANB3 / RFU, CUL4A / Fold change vs veh, CUL4A / RFU, CCNY / Fold change vs veh, CCNY / RFU, UFL1 / Fold change vs veh, UFL1 / RFU, COG3 / Fold change vs veh, COG3 / RFU, DIAPH2 / Fold change vs veh, DIAPH2 / RFU, SKA2 / Fold change vs veh, SKA2 / RFU, AFF3 / Fold change vs veh, AFF3 / RFU, LMF1 / Fold change vs veh, LMF1 / RFU, IPO11 / Fold change vs veh, IPO11 / RFU, DFFB / Fold change vs veh, DFFB / RFU, FOXP1 / Fold change vs veh, FOXP1 / RFU, CARD8 / Fold change vs veh, CARD8 / RFU, STRN3 / Fold change vs veh, STRN3 / RFU, ADK / Fold change vs veh, ADK / RFU, RASSF2 / Fold change vs veh, RASSF2 / RFU, WIPF1 / Fold change vs veh, WIPF1 / RFU, LARP1B / Fold change vs veh, LARP1B / RFU, RASA1 / Fold change vs veh, RASA1 / RFU, RB1 / Fold change vs veh, RB1 / RFU, PPFIA1 / Fold change vs veh, PPFIA1 / RFU, MAT2A / Fold change vs veh, MAT2A / RFU, CCT5 / Fold change vs veh, CCT5 / RFU, WDR92 / Fold change vs veh, WDR92 / RFU, CUX1 / Fold change vs veh, CUX1 / RFU, TTC7A / Fold change vs veh, TTC7A / RFU, TMEM135 / Fold change vs veh, TMEM135 / RFU, DEPTOR / Fold change vs veh, DEPTOR / RFU, CPM / Fold change vs veh, CPM / RFU, DNAJB6 / Fold change vs veh, DNAJB6 / RFU, CACNA2D3 / Fold change vs veh, CACNA2D3 / RFU, DTX4 / Fold change vs veh, DTX4 / RFU, TFCP2 / Fold change vs veh, TFCP2 / RFU, GMCL1 /// GMCL1P1 / Fold change vs veh, GMCL1 /// GMCL1P1 / RFU, AEBP2 / Fold change vs veh, AEBP2 / RFU, SNHG1 /// SNORD22 /// SNORD25 /// SNORD26 /// SNORD27 /// SNORD28 /// SNORD29 /// SNORD31 / Fold change vs veh, SNHG1 /// SNORD22 /// SNORD25 /// SNORD26 /// SNORD27 /// SNORD28 /// SNORD29 /// SNORD31 / Fold change (Aza/veh), C12orf56 (ProbeSet 11735607_a_at) / Fold change (ACY-1035/veh), C12orf56 (ProbeSet 11735607_a_at) / Fold change (Aza/veh), FGFR1OP (ProbeSet 11751329_s_at) / Fold change (ACY-1035/veh), FGFR1OP (ProbeSet 11751329_s_at) / Fold change (Aza/veh), VPS36 (ProbeSet 11739960_a_at) / Fold change (ACY-1035/veh), VPS36 (ProbeSet 11739960_a_at) / RFU SYPL1 (11715823_x_at) / Fold change /veh SYPL1 (11715823_x_at) / RFU IGFBP7 (11715501_s_at) / Fold change /veh IGFBP7 (11715501_s_at) / RFU REEP3 (11722064_at) / Fold change /veh REEP3 (11722064_at) / RFU IGLL1 (11728026_x_at) / Fold change /veh IGLL1 (11728026_x_at): dose or concentration left out as unconfirmed
Settings: MV-4-11 cells, 48 hours

Nc1ccc(-c2cccs2)cc1NC(=O)c1ccc2c(c1)cc(C1CC1)n2CCN1CCOCC1 [ACY-1035]
RFU FAM167A (11723789_a_at): 37.08 RFU

Source: publication PMC5218480 (PLoS ONE, 2017)
